Patent US20230391727A1, “ANALOGUES OF PENTAMIDINE AND METHODS FOR TREATING INFECTIONS” (Auransa Inc., priority 2020, published 2023)
≈ marks a conversion by molar mass, not a printed value.

Columns and labels:
[1] = Anti-fungal MIC assay, summary of first round; type: cell-based; details: read-out: Isolate MIC (100%); range over isolates of the first round of testing
Method: The first round of testing included Candida parapsilosis, Candida krusei, Paecilomyces variotii, Candida albicans, Aspergillus fumigatus, and Blastomyces dermatitidis. […] The second round of testing included Candida parapsilosis, Candida krusei, Candida albicans, Candida auris, Candida glabrata, Candida guilliermondii, and Cryptococcus neoformans.
Stock solutions of the investigational agent were prepared at concentrations 100-times the highest concentration to be tested (6400 μg/ml) using dimethyl sulfoxide. Aliquots of the stock solutions were dispensed into polystyrene vials and stored at −20° C.
The synthetic medium RPMI-1640 (with glutamine, without bicarbonate, and with phenol red) was used. The RPMI was buffered to a pH of 7.0+0.1 at 25° C. with 0.165M MOPS (3-[N-morpholino] propanesulfonic acid). Sterile U-shaped 96-well cell culture plates were used to perform the MIC assays. […]
Fungal isolates were grown on Sabouraud dextrose agar (yeasts) or potato flake agar (filamentous fungi) and cells were collected after an appropriate period of growth for each species being evaluated (e.g., 48-72 hours for yeasts and 7 days for filamentous fungi). The fungi were suspended in sterile distilled water, and the densities of the fungal suspension were read using a spectrophotometer and adjusted to an appropriate optical density specific for each fungal species. […]

[2] = Pharmacokinetic analysis, tissue and plasma exposure; details: male C57BL6 mice, 10 mg/kg subcutaneous administration; kidney, liver, and lung
Method: To determine whether target concentrations/exposures of these compounds can be achieved at various target organs, exposures of compound 3 were tested in kidney, liver, spleen, lung peritoneal fluid and plasma of male C57BL6 mice (5 mice per group). Compound 3 was dosed at 10 mg/kg subcutaneously with each group having samples taken at time indicated (FIG. 7).

K. pneumoniae = assay: Checkerboard assay with rifampicin (FIG. 1); type: cell-based, Klebsiella pneumoniae
Excerpt: As control, pentamidine was used for its synergistic, indifferent or antagonistic interaction with rifampicin in similar conditions. […] In FIG. 1, dark wells indicated growth inhibition of K. pneumoniae and corresponding antibacterial activities of these compounds.

[3] = tested on: 17 clinically relevant bacterial strains; assay: Checkerboard assays with rifampicin, summary over the panel; type: cell-based; details: compound 3 in combination of rifampicin; 17 test strains
Excerpt: The 17 test strains/isolates were: (1) Serratia marcescens (ATCC 13880); (2) Salmonella typhimurium (ATCC 13311); (3) Salmonella choleraesuis (ATCC 10708); (4) Acinetobacter baumannii (ATCC BAA-1605); (5) A. baumannii (ATCC 17978); (6) A. baumannii (FDA-CDC AR-BANK#0088); (7) Citrobacter freundii (ATCC 8090); (8) Pseudomonas aeruginosa (BCCM 27647); (9) P. aeruginosa (BCCM 27648); (10) Escherichia coli (ATCC 25922); (11) E. coli (ATCC 10536); (12) Stenotrophomonas maltophilia (ATCC 13637); (13) Enterobacter cloacae (ATCC BAA-1143); (14) E. cloacae (ATCC 13047); (15) E. aerogenes (ATCC 13048); (16) Klebsiella pneumoniae (NCTC 13438); and (17) Klebsiella pneumoniae (FDA-CDC AR-BANK#0160). […]
The 17 test strains were grown on nutrient agar or tryptic soy agar (TSA) medium as below. […] The absorbance of the bacterial suspension was measured with a spectrophotometer at OD620nm, and then the suspension was adjusted to 1-2×10^8 CFU/mL in PBS. […] The actual microbial count in the assay ranged from 2˜8×10^5 CFU/mL as determined from dilution plating. […]
Assay plates were incubated and MIC endpoints were read as complete inhibition of visual growth. […]
FIC (Fraction Inhibitory Concentration) and FIC Index (FICI) values for each test condition and the average of FICI values of all pairwise combinations were calculated to determine if synergy or antagonism existed between the two substances. […]

[4] = tested on: Escherichia coli (ATCC 25922); assay: Checkerboard/MIC assay with rifampicin; type: cell-based
Procedure, shortened: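 Colonies suspended in PBS pH 7.4, set to 1-2×10^8 CFU/mL by OD620nm, diluted 1:500 in cation-adjusted MHB (~5×10^5 CFU/mL/well). Visual MIC; FICI ≤0.5 synergy, >0.5 to ≤4 indifference, >4 antagonism.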

[5] = compound 3 in combination with rifampicin

## N=C(N)c1ccc(CC[C@H]2CCC[C@@H](CCc3ccc(C(=N)N)cc3)C2)cc1 [Compound 3, 4,4′-(2,2′-((1R,3S)-cyclohexane-1,3-diyl)bis(ethane-2,1-diyl))dibenzimidamide]
[1]
  MIC: 1 to 64 µg/mL (≈ 2.66 to 170 µM)
[2]
  exposure relative to target concentrations for pharmacology: target concentrations for pharmacology could be achieved
K. pneumoniae
  synergistic effect with rifampicin, growth inhibition, compared to pentamidine: superior synergistic effects with rifampicin than pentamidine with rifampicin
[3]
  combination effect with rifampicin: synergistic effects for most tested strains
[4]; ATCC25922, substance alone
  MIC: 6.25 µg/mL
[4]; [5]
  Combination Result: additivity/
  FICI (Average): 0.52
